From patent US9029559B2, “Substituted 3-heteroaroylamino-propionic acid derivatives and their use as pharmaceuticals” (SANOFI, priority 2011, dated 2015)

target: Recombinant human cathepsin A (Homo sapiens (Human), UniProt P10619); assay: Cathepsin A inhibitory activity (cleavage of Bodipy FL-labeled bradykinin, microfluidic capillary electrophoresis); format: biochemical; details: read-out: Activity (Cathepsin A inhibitory activity, IC50)
Sequence (P10619 29-326): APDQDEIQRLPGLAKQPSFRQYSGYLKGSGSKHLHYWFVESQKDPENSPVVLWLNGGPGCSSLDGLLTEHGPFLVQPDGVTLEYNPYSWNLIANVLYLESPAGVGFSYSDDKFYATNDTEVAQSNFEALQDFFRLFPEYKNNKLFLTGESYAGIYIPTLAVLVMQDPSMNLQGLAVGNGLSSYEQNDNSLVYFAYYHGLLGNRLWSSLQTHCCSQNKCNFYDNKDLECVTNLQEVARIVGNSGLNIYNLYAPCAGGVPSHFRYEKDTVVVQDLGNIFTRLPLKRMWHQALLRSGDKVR
Sequence (P10619 327-480): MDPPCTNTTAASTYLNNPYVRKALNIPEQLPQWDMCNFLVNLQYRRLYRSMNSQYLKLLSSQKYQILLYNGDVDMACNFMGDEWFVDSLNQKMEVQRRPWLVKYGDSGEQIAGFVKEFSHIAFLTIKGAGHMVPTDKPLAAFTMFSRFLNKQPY

IC50 [µM] | SMILES
3.93 | O=C(O)C[C@H](NC(=O)c1cccc(-c2ccccc2F)n1)c1cccc(Cl)c1Cl [compound 606]
3.85 | O=C(O)CC(NC(=O)c1cc(Sc2ncccn2)ccn1)c1ccccc1Cl (stereo not drawn) [compound 601]
2.32 | O=C(O)C[C@H](NC(=O)c1cccc(-c2ccccc2Cl)n1)c1cccc(Cl)c1Cl [compound 610]
2.28 | O=C(O)C[C@H](NC(=O)c1cccc(-c2ccccc2F)n1)c1ccc(Cl)cc1Cl [compound 605]

same assay, conditions: read-out: Activity (IC50, cathepsin A inhibition)

SMILES | IC50 [µM]
O=C(O)CC(NC(=O)c1ccnc(N2CCCC2)c1)c1ccccc1Cl (stereo not drawn) [compound 553] | 11.1
COc1cc(C(=O)NC(CC(=O)O)c2ccccc2Cl)ccn1 (stereo not drawn) [compound 536] | 5.08
Cc1ccc([C@H](CC(=O)O)NC(=O)c2cccc(-c3ccccc3F)n2)cc1 [compound 559] | 4.38
COc1ccc(C(=O)NC(CC(=O)O)c2ccccc2Cl)nc1Cl (stereo not drawn) [compound 550] | 1.08
O=C(O)C[C@H](NC(=O)c1cccc(-c2ccccc2Cl)n1)c1cccc(F)c1 [compound 587] | 7.35
O=C(O)CC(NC(=O)c1cc(O)ccn1)c1ccccc1Cl (stereo not drawn) [compound 529] | 5.12
O=C(O)CC(NC(=O)c1cncc(-c2ccccc2)c1)c1ccccc1Cl (stereo not drawn) [compound 566] | 11.7

Results, then the molecule that gave them:

IC50 [µM] | SMILES
6.29 | Cc1cc(C)nc(C(=O)NC(CC(=O)O)c2ccccc2Cl)c1 (stereo not drawn) [compound 533]
15.6 | Cc1ccc([C@H](CC(=O)O)NC(=O)c2cccc(-c3ccccc3Cl)n2)cc1 [compound 580]
12.9 | Cc1cccc([C@H](CC(=O)O)NC(=O)c2cccc(-c3ccccc3F)n2)c1 [compound 560]
4.89 | O=C(O)CC(NC(=O)c1cccc(-c2ccccc2F)n1)c1ccccc1Cl (stereo not drawn) [compound 589]
12.8 | O=C(O)CC(NC(=O)c1cnccn1)c1ccccc1Cl (stereo not drawn) [compound 521]

same assay, conditions: read-out: Activity (IC50, cathepsin A inhibitory activity)

SMILES | IC50 [µM]
COc1ccc(C(=O)N[C@@H](CC(=O)O)c2ccccc2Cl)nc1-c1cccc(C(C)=O)c1 [compound 435] | 4.2
Cc1ccccc1[C@H](CC(=O)O)NC(=O)c1ccnc(-c2ccccc2F)c1 [compound 97] | 2.71
COc1ccc(C(=O)N[C@@H](CC(=O)O)c2ccccc2Cl)nc1-c1cccc(-c2nnc(C)o2)c1 [compound 484] | 6.69
COc1ccc(C(=O)N[C@@H](CC(=O)O)c2ccc(C)cc2)nc1-c1cc(C)cnc1Cl [compound 247] | 8.43
COc1ncc(C(=O)N[C@@H](CC(=O)O)c2ccccc2C)cc1-c1cccc(-c2ccccc2)c1 [compound 423] | > 10
COc1ccc(OC)c(-c2nc(C(=O)N[C@@H](CC(=O)O)c3ccccc3Cl)ccc2OC)c1 [compound 461] | 8.31
COc1ccc(C(=O)N[C@@H](CC(=O)O)c2ccccc2C)nc1-c1ccc(C#N)cc1 [compound 465] | 6.8
COc1ccc(C(=O)N[C@@H](CC(=O)O)c2ccccc2Cl)nc1-c1ccccc1C(=O)N(C)C [compound 454] | 2.5
COc1ccc(C(=O)N[C@@H](CC(=O)O)c2ccccc2F)nc1-c1cccnc1 [compound 284] | > 10
COc1ncc(C(=O)N[C@@H](CC(=O)O)c2ccccc2C)cc1-c1ccc(F)c(F)c1 [compound 425] | 8.84
Cc1ccccc1[C@H](CC(=O)O)NC(=O)c1nc(F)ccc1F [compound 53] | 2.83
COc1cccc(C(=O)N[C@@H](CC(=O)O)c2ccccc2C)n1 [compound 31] | 4.77
COc1ccc(C(=O)N[C@@H](CC(=O)O)c2ccccc2Cl)nc1-c1ccc(C(F)(F)F)cc1F [compound 214] | 7.02
COc1ccc(-c2cccc(C(=O)N[C@@H](CC(=O)O)c3ccccc3C)n2)cc1 [compound 45] | 3.09
Cc1ccccc1[C@H](CC(=O)O)NC(=O)c1ccc(Oc2ccccc2)nc1 [compound 46] | 9.94
Cc1ccnc(C(=O)N[C@@H](CC(=O)O)c2ccccc2C)c1 [compound 14] | 4.35
COc1ccc(C(=O)N[C@@H](CC(=O)O)c2ccccc2C)nc1-c1cc(C)cnc1Cl [compound 469] | 5.63
COc1ccc(C(=O)N[C@@H](CC(=O)O)c2ccccc2F)nc1-c1cccc(F)c1 [compound 266] | 1.26
COc1ccc(C(=O)N[C@@H](CC(=O)O)c2ccccc2Cl)nc1-c1ccncc1 [compound 443] | 8.04
Cc1ccccc1[C@H](CC(=O)O)NC(=O)c1cncc(-c2ccc(F)cc2F)c1 [compound 73] | 3.25

Next, values leading:

IC50 [µM] | SMILES
8.51 | COc1ccc(F)c(-c2cncc(C(=O)N[C@@H](CC(=O)O)c3ccccc3C)c2)c1 [compound 88]
> 10 | COc1ncc(C(=O)N[C@@H](CC(=O)O)c2ccccc2Cl)cc1-c1cccc(-c2ccccc2)c1 [compound 400]
1.24 | Cc1cccc(C(=O)N[C@@H](CC(=O)O)c2ccccc2C)n1 [compound 10]
9.66 | COc1ccc(C(=O)N[C@@H](CC(=O)O)c2ccc(C)cc2)nc1-c1ccncc1 [compound 215]
5.26 | Cc1cc(C(=O)N[C@@H](CC(=O)O)c2ccccc2C)nc(C)n1 [compound 55]
9.04 | COc1ccc(-c2cc(C(=O)N[C@@H](CC(=O)O)c3ccccc3C)cnc2OC)cc1 [compound 409]
8.71 | COc1ccc(C(=O)N[C@@H](CC(=O)O)c2ccc(C)cc2)nc1-c1cccc(-c2nnc(C)o2)c1 [compound 249]
3.81 | COc1ccc(C(=O)N[C@@H](CC(=O)O)c2ccccc2F)nc1-c1ccc(C)c(F)c1 [compound 290]
8.26 | COc1ccc(C(=O)N[C@@H](CC(=O)O)c2ccccc2Cl)nc1-c1cccc(C#N)c1 [compound 433]
5.01 | Cc1ccccc1[C@H](CC(=O)O)NC(=O)c1cncc(-c2cccc(F)c2F)c1 [compound 79]
2.27 | COc1cccc(-c2cccc(C(=O)N[C@@H](CC(=O)O)c3ccccc3C)n2)c1 [compound 43]
5.27 | COc1ccc(C(=O)N[C@@H](CC(=O)O)c2ccccc2F)nc1-c1ccc(Cl)cc1 [compound 258]
4.51 | COc1ccc(C(=O)N[C@@H](CC(=O)O)c2ccccc2F)nc1-c1ccccc1C(=O)N(C)C [compound 295]
7.25 | COc1cccnc1C(=O)N[C@@H](CC(=O)O)c1ccccc1C [compound 9]
3.12 | COc1ccc(C(=O)N[C@@H](CC(=O)O)c2ccccc2F)nc1-c1ccc(F)c(F)c1 [compound 280]
8.77 | COc1ccc(C(=O)N[C@@H](CC(=O)O)c2ccccc2Cl)nc1-c1cc(C)cnc1Cl [compound 481]

same assay, conditions: read-out: Activity [μM] (IC50, cathepsin A inhibitory activity)

SMILES | IC50 [µM]
COc1cccc(-c2nc(C(=O)N[C@@H](CC(=O)O)c3ccc(C)cc3)ccc2OC)c1 [compound 191] | 4.57
Cc1ccccc1[C@H](CC(=O)O)NC(=O)c1cncc(-c2cccc(C)c2C)c1 [compound 116, (S)-3-{[5-(2,3-Dimethyl-phenyl)-pyridine-3-carbonyl]-amino}-3-o-tolyl-propionic acid] | 1.01
Cc1ccc(-c2cccc(C(=O)N[C@@H](CC(=O)O)c3ccccc3C)n2)c(C)c1 [compound 162] | 1.43
Cc1ccccc1[C@H](CC(=O)O)NC(=O)c1cccc(-c2ccc(F)cc2F)n1 [compound 149] | 4.4
COc1ccc(C(=O)N[C@@H](CC(=O)O)c2ccccc2C)nc1-c1cccc(C(C)(C)O)c1 [compound 385] | 1.15
COc1cccc(-c2cc(C(=O)N[C@@H](CC(=O)O)c3ccccc3Cl)cnc2OC)c1 [compound 391] | 10.6
COc1ccc(C(=O)N[C@@H](CC(=O)O)c2ccccc2F)nc1-c1cccc(C(C)(C)O)c1 [compound 327] | 7.32
COc1ccc(C(=O)N[C@@H](CC(=O)O)c2ccc(C)cc2)nc1-c1cccc(C)c1 [compound 197] | 1.71
COc1ccc(-c2cc(C(=O)N[C@@H](CC(=O)O)c3ccccc3Cl)cnc2OC)cc1 [compound 387] | 9.43
COc1ccc(C(=O)N[C@@H](CC(=O)O)c2ccc(C)cc2)nc1-c1ccc(Cl)cc1 [compound 186, (S)-3-{[6-(4-Chloro-phenyl)-5-methoxy-pyridine-2-carbonyl]-amino}-3-p-tolyl-propionic acid] | 3.56
COc1ncc(C(=O)N[C@@H](CC(=O)O)c2ccccc2Cl)cc1-c1ccccc1 [compound 344, (S)-3-(2-Chloro-phenyl)-3-[(6-methoxy-5-phenyl-pyridine-3-carbonyl)-amino]-propionic acid] | 3.49
COc1ccc(C(=O)N[C@@H](CC(=O)O)c2ccc(C)cc2)nc1-c1ccc(C)cc1 [compound 188] | 4.45
Cc1ccccc1[C@H](CC(=O)O)NC(=O)c1cccc(-c2cccc(C(C)(C)O)c2)n1 [compound 176, (S)-3-({6-[3-(1-Hydroxy-1-methyl-ethyl)-phenyl]-pyridine-2-carbonyl}-amino)-3-o-tolyl-propionic acid] | 3.32
COc1ncc(C(=O)N[C@@H](CC(=O)O)c2ccccc2Cl)cc1-c1cccc(F)c1 [compound 341] | 9.86
Cc1ccccc1[C@H](CC(=O)O)NC(=O)c1cccc(-c2cccc(C(F)(F)F)c2)n1 [compound 133] | 5.76
COc1ccc(C(=O)N[C@@H](CC(=O)O)c2ccc(C)cc2)nc1-c1cccc(Cl)c1 [compound 193] | 2.74

The remaining lines, values ahead:

IC50 [µM] | SMILES
> 10 | COc1ccc(C(=O)N[C@@H](CC(=O)O)c2ccccc2F)nc1-c1cccc(-c2nnc(C)o2)c1 [compound 316]
1.27 | COc1ccc(C(=O)N[C@@H](CC(=O)O)c2ccccc2F)nc1-c1cccc(F)c1Cl [compound 324]
5.33 | COc1ccc(C(=O)N[C@@H](CC(=O)O)c2ccccc2C)nc1-c1ccc2ccn(C)c2c1 [compound 380]
1.55 | Cc1ccccc1[C@H](CC(=O)O)NC(=O)c1cccc(-c2ccc3c(c2)OCO3)n1 [compound 152]
6.57 | COc1ncc(C(=O)N[C@@H](CC(=O)O)c2ccccc2Cl)cc1-c1cccc(C)c1 [compound 395]
2.31 | COc1ccc(C(=O)N[C@@H](CC(=O)O)c2ccccc2F)nc1-c1cc(C)ccc1Cl [compound 323]
6.98 | Cc1ccccc1[C@H](CC(=O)O)NC(=O)c1cccc(-c2cccc(OCC3CC3)c2)n1 [compound 171]
